According to article PMC7230731 (Marine Drugs, 2020):

Assays:
Format in all cases: cell-based, human
[1] = test system: Bax/Bcl-2; assay: Bax/Bcl-2 ratio from ELISA; conditions: MCF-7 cells; for Bax/Bcl-2: IC50 concentration, 48 h
From the text: (§1) Synchronization of the mitochondrial pathway is headed by the Bcl-2 family of proteins. These proteins are classified into two groups: anti-apoptotic proteins exemplified by Bcl-2 protein and the counteracting pro-apoptotic proteins including Bax protein [21]. As induction of the apoptotic machinery is one of the most useful strategies in cancer therapy, we investigated the effect of our compounds to boost the pro-apoptotic protein; Bax and reduce the anti-apoptotic protein; Bcl-2 in an attempt to explore the underlying mechanism for their cytotoxic activity (Table 1). […] Fortunately, both compounds markedly boosted the level of Bax by 8.3- and 6.4-fold, respectively (Table 4, Figure 3).
(§2) Effects of treatment of breast cancer MCF-7 cells with bis-indoles 7e and 9a on the expression levels of the pro-apoptotic markers (Bax, caspase-3, and p53) in addition to the anti-apoptotic protein Bcl-2 marker was assessed by the use of ELISA colorimetric kits as per the manufacturer’s instructions, as described earlier.
(§3) The levels of the pro-apoptotic markers (Bax, caspase-3 and p53) as well as the anti-apoptotic marker Bcl-2 were determined using ELISA colorimetric kits per the manufacturer’s instructions. Breast cancer MCF-7 cells were cultured as a monolayer in T-25 flasks and were seeded to attain 30% confluency prior to treatment. Cells were […]
(§4) At the end of treatment, cells were collected via trypsinization and centrifuged at 10,000 rpm. The pellet was then rinsed with PBS and lysed in RIPA lysis buffer at 4 °C for 45 min, then centrifuged at 14,000 rpm for 20 min to remove the cellular debris. Lysates were then collected and stored at −80 °C for later protein determination using Pierce BCA Protein Assay Kit according to manufacturer’s recommendations.
(§5) The cell lysate was diluted 10 times, and 100 μL ([…]) was added to the wells of four separate microtiter plates for the four ELISA kits that were pre-coated with primary antibodies specific to Bax, Bcl-2, caspase-3 and p53 proteins, respectively. A secondary biotin-linked antibody specific to the protein captured by the primary antibody was further added to bind the captured protein, forming a “sandwich” of specific antibodies around the desired protein in the cell lysate. The streptavidin-HRP complex was then used to bind the biotin-linked secondary antibody through its streptavidin portion. The HRP domain reacted with the added TMB substrate to form a colored product that measured at 450 nm by a plate reader ChroMate-4300 after the reaction was terminated via the addition of stop solution. […]

[2] = test system: Bax; assay: ELISA immunoassay, Bax level; conditions: MCF-7 cells; for Bax: IC50 concentration, 48 h
From the text: as §1, §2, §3, §4, §5
Breast […]
cancer MCF-7 cells were cultured to a monolayer then treated with bis-indoles 7e and 9a at their IC50 concentration. […]

[3] = test system: p53; assay: ELISA immunoassay, p53 level; conditions: MCF-7 cells; for p53: IC50 concentration, 48 h
Experimental: (§6) Moreover, their effect on the level of caspase-3; the executioner caspase and p53 was evaluated in the MCF-7 cell line. […] In addition, they augmented the level of p53 by 15.4- and 11.75-fold, respectively in comparison to the control (Table 5, Figure 3).
as §2, §3, §4, §5

[4] = test system: caspase-3; assay: ELISA immunoassay, active caspase-3 level; conditions: for increase of caspase-3 level vs control: MCF-7 cells; for Caspase-3: active caspase-3, MCF-7 cells, IC50 concentration, 48 h
Experimental: as §6, §2, §3, §4, §5

[5] = test system: MCF-10A cells; assay: SRB cytotoxicity assay, non-tumorigenic MCF-10A; conditions: for Selectivity Index MCF-10A/MCF-7: IC50 MCF-10A / IC50 MCF-7; for IC50: non-tumorigenic human breast epithelial MCF-10A cells, SRB assay
From the text: The two examined human breast cancer cell lines (MCF-7 and Breast MDA-MB-231), and non-tumorigenic human breast epithelial cell line (MCF-10A) have been obtained from the American Type Culture Collection (ATCC). Assessment of cytotoxicity for target indole derivatives has been performed following the SRB colorimetric assay procedures, as reported earlier.
1. Anti-proliferative action toward human breast cell lines
(§7) The two examined human breast cancer cell lines (MCF-7 and Breast MDA-MB-231), and non-tumorigenic human breast epithelial cell line (MCF-10A) have been obtained from American Type Culture Collection (ATCC). The cells were maintained in Dulbecco's modified Eagle's medium (DMEM) supplemented with 10% heat inactivated fetal calf serum (GIBCO), penicillin (100 U/ml) and streptomycin (100 µg/ml) at 37 °C in humidified atmosphere containing 5% CO2. Cells at a concentration of 0.50 x 106 were grown in a 25 cm2 flask in 5 ml of culture medium.
The anti-proliferative activity of the tested compounds was measured in vitro using the Sulfo-Rhodamine-B stain (SRB) assay. Briefly, Cells were inoculated in 96-well microtiter plate (5X104 cells/ well) for 24 h before treatment with the tested compounds to allow attachment of cell to the wall of the plate. Tested compounds were dissolved in DMSO at 1 mg/ml immediately before use and diluted to the appropriate volume just before addition to the cell culture. Different concentrations of tested compounds, doxorubicin and sorafenib were added to the cells (three wells were prepared for each individual dose). Cells were incubated with the compounds for 48 h at 37°C and in atmosphere of 5% CO2. After 48 h cells were fixed, washed, and stained for 30 min with 0.4% (w/v) SRB dissolved in 1% acetic acid. Unbound dye was removed by four washes with 1% acetic acid, and attached stain was recovered with Tris-EDTA buffer. Color intensity was measured in an ELISA reader. The relation between percent of surviving fraction and drug concentration is plotted to get the survival curve for each cell line. […]

[6] = test system: MDA-MB-231 cells; assay: SRB antiproliferative assay, MDA-MB-231; conditions: for IC50: Homo sapiens, MDA-MB-231, 48 h, MDA-MB-231 triple-negative breast cancer cells, SRB assay, 48 h, mean ± S.D. of three experiments
Experimental: 1. Anti-proliferative action toward human breast cell lines […]
as §7, with “and” for “The two examined human breast cancer cell lines (MCF-7 and Breast MDA-MB-231), and”, “Cells at a concentration of 0.50 x 106 were grown in a 25 cm2 flask in 5 ml of culture medium.” left out
grown in a 25 cm2 flask in 5 ml of culture medium.
The anti-proliferative activity of the tested compounds was measured in vitro using the Sulfo-Rhodamine-B stain (SRB) assay. Briefly, Cells were inoculated in 96-well microtiter plate (5X104 cells/ well) for 24 h before treatment with the tested compounds to allow attachment of cell to the wall of the plate. Tested compounds were dissolved in DMSO at 1 mg/ml immediately before use and diluted to the appropriate volume just before addition to the cell culture. Different concentrations of tested compounds, doxorubicin and sorafenib were added to the cells (three wells were prepared for each […]
atmosphere of 5% CO2. After 48 h cells were fixed, washed, and stained for 30 min with 0.4% (w/v) SRB dissolved in 1% acetic acid. Unbound dye was removed by four washes with 1% acetic acid, and attached stain was recovered with Tris-EDTA buffer. Color intensity was measured in an ELISA reader. The relation between percent of surviving fraction and drug concentration is plotted to get the survival curve for each cell line. […]

IC50 [6] [µM] | Structure (SMILES) | Bax/Bcl-2 ratio augmentation vs control [1] [fold] | Bax/Bcl-2 [1] | increase of Bax level vs control [2] [fold] | Bax [2] | increase of p53 level vs control [3] [fold] | p53 [3] [pg/mg] | increase of caspase-3 level vs control [4] [fold] | Caspase-3 [4] [pg/mg] | Selectivity Index MCF-10A/MCF-7 [5] | IC50 [5] [µM] | potency relative to Staurosporine, MDA-MB-231 ([6]; ratio of IC50 values, MDA-MB-231 cells) [times]
18.2 ± 0.62 | C=CCN1C(=O)C(=NNC(=O)Cc2c[nH]c3ccccc23)c2ccccc21 [Compound 9a, N′-(1-Allyl-2-oxoindolin-3-ylidene)-2-(1H-indol-3-yl)acetohydrazide] | 11.1 | 91.2 | 6.4 | 243.6 ± 12.4 pg/mg of Total Protein | 11.75 | 482.3 ± 27.4 | 9.5 | 331.0 ± 12.5 | 18.3 | 23.5 | 
1.32 ± 0.03 | O=C(Cc1c[nH]c2ccccc12)NN=C1C(=O)Nc2ccc([N+](=O)[O-])cc21 [Compound 7e, 2-(1H-Indol-3-yl)-N′-(5-nitro-2-oxoindolin-3-ylidene)acetohydrazide] | 18.65 | 153.6 | 8.3 | 318.0 ± 10.5 pg/mg of Total Protein | 15.4 | 631.8 ± 35.8 | 11.7 | 409.2 ± 17.2 | 38.7 | 17.1 | 7.8
